The text below walks through data of ChEMBL document CHEMBL3217628, “Benzisothiazolones arrest the cell cycle at the G2/M phase and induce apoptosis in HeLa cells” (Medchemcomm, 2013).

Calls of active or inactive are those of the source. The calls are words filed in the database; no cut-off is given here.

Data set [1] deals with SW480. Kind of data set: Cytotoxicity against human SW480 cells after 72 hrs by MTT assay. The conditions noted are these: SW480, 72 h. Type of data set: functional, cell-based.
For data set [2], the system named is SiHa. Kind of data set: Cytotoxicity against human SiHa cells after 72 hrs by MTT assay. The format is functional, cell-based. In general terms: Tetrazolium assays rely on reduction of a dye to a coloured formazan, in cell work by metabolically active cells.
Data set [3] relates to HeLa. Kind of data set: Cytotoxicity against human HeLa cells after 72 hrs by MTT assay. Type of data set: functional, cell-based.
Data set [4] is described as follows: Solubility of the compound in DMSO. Type of data set: physicochemical.
For data set [5], the system named is HeLa. Kind of data set: Induction of apoptosis in human HeLa cells assessed as cleaved caspase-3 level at […] after 48 hrs by Western blot analysis. The format is functional, cell-based.
Data set [6] concerns HeLa. Kind of data set: Induction of apoptosis in human HeLa cells assessed as disruption of mitochondrial membrane potential at […] after 72 hrs using JC1 dye by fluorescence microscope analysis. Type of data set: functional, cell-based.
Data set [7] relates to HeLa. Kind of data set: Cell cycle arrest in human HeLa cells assessed as apoptotic cells at 50 uM after 48 hrs using propidium iodide staining by flow cytometry (reference value: 7.3%). The format is functional.
The test system of data set [8] is HeLa. As to the kind of experiment: Cell cycle arrest in human HeLa cells assessed as accumulation at G2/M phase at 50 uM after 48 hrs using propidium iodide staining by flow cytometry (reference value: 14.3%). The format is functional. Background: A flow cytometer gives signals particle by particle.
Data set [9] relates to HeLa. As to the kind of experiment: Induction of apoptosis in human HeLa cells assessed as disruption of mitochondrial membrane potential at 50 uM after 72 hrs using JC1 dye by fluorescence microscope analysis. Type of data set: functional, cell-based.
Data set [10] concerns HeLa. Kind of data set: Induction of apoptosis in human HeLa cells assessed as formation of DNA fragmentation at 50 uM after 72 hrs using ethidium bromide staining by 2% agarose gel electrophoresis assay. The format is functional, cell-based.

`C[C@@H](c1ccccc1)n1sc2ccccc2c1=O`: the IC50 turned out to be 41.8 µM in data set [1], 35.9 µM in data set [2] and 30.9 µM in data set [3].
Turning to `O=C(c1ccccc1)c1cc(Cl)ccc1-n1sc2ccccc2c1=O`, in data set [4], the solubility result is recorded as “soluble”.
Take `CC(=O)O[C@H]1C(=O)[C@@]2(C)[C@H]([C@H](OC(=O)c3ccccc3)[C@]3(O)C[C@H](OC(=O)[C@H](O)[C@@H](NC(=O)c4ccccc4)c4ccccc4)C(C)=C1C3(C)C)[C@]1(OC(C)=O)CO[C@@H]1C[C@@H]2O`: the result in data set [5] and in data set [6] was Active.
In the case of `O=c1c2ccccc2sn1Cc1ccc2c(c1)OCO2`, the IC50 in data set [1] is 46.3 µM; in [2] it was 29.3 µM; in data set [3], 37.3 µM.
The corresponding values for `CC(C)Cn1sc2ccccc2c1=O` are 47.8 µM, 38.1 µM and 31.8 µM.
As for `COc1ccccc1-n1sc2ccccc2c1=O`, the solubility entry in data set [4] is “soluble”.
On the same count and under the same terms, to `O=c1c2ccccc2sn1-c1ccccc1` belongs “soluble”.
Still for that read-out and setting: to `O=c1c2ccccc2sn1-c1ccccc1[N+](=O)[O-]` belongs “soluble”.
Regarding `O=c1c2ccccc2sn1C1CCCCC1`, the Activity amounted to 23.4% in data set [7] and 26.6% in [8]. Besides, the IC50 in [1] came to 48.8 µM; in data set [2] it was 48.3 µM; in data set [3] it was 24.8 µM. Also, the result in data set [9] and in data set [10] was Active.
As for `Cc1ccc(-n2sc3ccccc3c2=O)cc1`, the solubility entry in [4] is recorded as “soluble”.
With `COc1ccc(-n2sc3ccccc3c2=O)cc1`, the solubility entry in data set [4] is “soluble”.
Turning to `C[C@H](c1ccccc1)n1sc2ccccc2c1=O`, the IC50 in data set [1] was determined as 43.1 µM; in [2], 32.3 µM; in data set [3] it was 43.7 µM.

What is called IC50 is the concentration needed to halve the response being measured.
